# Reference: PubChem BioAssay AID250 (DTP/NCI, 2004)
# “And” between values parts separate entries of the source, which are not always exact repeats. Identical values can stand only once. Toxic doses and inconclusive results are not listed.
# System: BDF1 mice, L1210 leukemia sc, survival T/C
# Test: NCI In Vivo Anticancer Drug Screen. Data for tumor model L1210 Leukemia (subcutaneous) in B6D2F1 (BDF1) mice
# Settings: higher = longer survival
# How it was run: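 Antitumor activity is assessed in mice with transplanted tumors by comparing the treated group (T) with the vehicle control group (C).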
smiles,measurement,setting,value
O=P1(N(CCCl)CCCl)NCCCO1 (centres undefined),T/C,"endpoint: mean survival time, dose: 70.0 mg/kg/injection, schedule: Q01DX001 (ip), vehicle: saline",161 % of control
same,T/C,"endpoint: mean survival time, dose: 100.0 mg/kg/injection, schedule: Q08DX003 (sc), vehicle: saline",190 % of control
same,T/C,"endpoint: mean survival time, dose: 140.0 mg/kg/injection, schedule: Q01DX001 (ip), vehicle: saline",180 % of control
same,T/C,"endpoint: mean survival time, dose: 200.0 mg/kg/injection, schedule: Q01DX001 (ip), vehicle: saline",219 % of control
same,T/C,"endpoint: mean survival time, dose: 200.0 mg/kg/injection, schedule: Q08DX003 (sc), vehicle: saline",221 % of control
same,T/C,"endpoint: mean survival time, dose: 280.0 mg/kg/injection, schedule: Q01DX001 (ip), vehicle: saline",232 % of control
same,T/C,"endpoint: mean survival time, dose: 400.0 mg/kg/injection, schedule: Q08DX003 (sc), vehicle: saline",171 % of control
same,T/C,"endpoint: mean survival time, dose: 560.0 mg/kg/injection, schedule: Q01DX001 (ip), vehicle: saline",91 % of control
same,T/C,"endpoint: median survival time, dose: 6.25 mg/kg/injection, schedule: Q01DX009 (ip), vehicle: saline",104 % of control
same,T/C,"endpoint: median survival time, dose: 6.25 mg/kg/injection, schedule: Q01DX009 (sc), vehicle: saline",98 % of control and 101 % of control
same,T/C,"endpoint: median survival time, dose: 8.4 mg/kg/injection, schedule: Q01DX Z (ip), vehicle: saline",100 % of control
same,T/C,"endpoint: median survival time, dose: 10.8 mg/kg/injection, schedule: Q01DX001 (ip), vehicle: saline",150 % of control
same,T/C,"endpoint: median survival time, dose: 12.5 mg/kg/injection, schedule: Q01DX009 (sc), vehicle: saline",107 % of control and 112 % of control
same,T/C,"endpoint: median survival time, dose: 14.0 mg/kg/injection, schedule: Q01DX Z (ip), vehicle: saline",110 % of control and 117 % of control
same,T/C,"endpoint: median survival time, dose: 14.0 mg/kg/injection, schedule: Q01DX Z (oral), vehicle: saline",104 % of control
same,T/C,"endpoint: median survival time, dose: 14.0 mg/kg/injection, schedule: Q01DX Z (sc), vehicle: other",110 % of control
same,T/C,"endpoint: median survival time, dose: 14.0 mg/kg/injection, schedule: Q#A X Z (sc), vehicle: saline",220 % of control
same,T/C,"endpoint: median survival time, dose: 18.0 mg/kg/injection, schedule: Q01DX001 (ip), vehicle: saline",200 % of control
same,T/C,"endpoint: median survival time, dose: 23.0 mg/kg/injection, schedule: Q01DX Z (ip), vehicle: saline",165 % of control
same,T/C,"endpoint: median survival time, dose: 23.0 mg/kg/injection, schedule: Q01DX Z (oral), vehicle: saline",120 % of control
same,T/C,"endpoint: median survival time, dose: 23.0 mg/kg/injection, schedule: Q01DX Z (sc), vehicle: other",195 % of control
same,T/C,"endpoint: median survival time, dose: 23.0 mg/kg/injection, schedule: Q## X Z (sc), vehicle: saline",110 % of control
same,T/C,"endpoint: median survival time, dose: 25.0 mg/kg/injection, schedule: Q01DX009 (ip), vehicle: saline",122 % of control
same,T/C,"endpoint: median survival time, dose: 39.0 mg/kg/injection, schedule: Q01DX Z (ip), vehicle: saline",243 % of control
same,T/C,"endpoint: median survival time, dose: 39.0 mg/kg/injection, schedule: Q01DX Z (oral), vehicle: saline",155 % of control and 215 % of control and 221 % of control
same,T/C,"endpoint: median survival time, dose: 39.0 mg/kg/injection, schedule: Q02DX Z (sc), vehicle: saline",225 % of control
same,T/C,"endpoint: median survival time, dose: 39.0 mg/kg/injection, schedule: Q07DX Z (sc), vehicle: saline",113 % of control and 115 % of control and 123 % of control
same,T/C,"endpoint: median survival time, dose: 39.0 mg/kg/injection, schedule: Q## X Z (sc), vehicle: saline",150 % of control
same,T/C,"endpoint: median survival time, dose: 39.0 mg/kg/injection, schedule: Q#A X Z (sc), vehicle: saline",230 % of control
same,T/C,"endpoint: median survival time, dose: 50.0 mg/kg/injection, schedule: Q01DX009 (ip), vehicle: saline",162 % of control
same,T/C,"endpoint: median survival time, dose: 50.0 mg/kg/injection, schedule: Q01DX009 (sc), vehicle: saline",163 % of control and 181 % of control
same,T/C,"endpoint: median survival time, dose: 50.0 mg/kg/injection, schedule: Q08DX003 (sc), vehicle: saline",122 % of control
same,T/C,"endpoint: median survival time, dose: 65.0 mg/kg/injection, schedule: Q01DX Z (ip), vehicle: saline",213 % of control
same,T/C,"endpoint: median survival time, dose: 65.0 mg/kg/injection, schedule: Q01DX Z (oral), vehicle: saline",161 % of control and 182 % of control
same,T/C,"endpoint: median survival time, dose: 65.0 mg/kg/injection, schedule: Q01DX Z (sc), vehicle: other",240 % of control
same,T/C,"endpoint: median survival time, dose: 65.0 mg/kg/injection, schedule: Q07DX Z (sc), vehicle: saline",165 % of control and 175 % of control
same,T/C,"endpoint: median survival time, dose: 65.0 mg/kg/injection, schedule: Q#A X Z (sc), vehicle: saline",150 % of control
same,T/C,"endpoint: median survival time, dose: 69.0 mg/kg/injection, schedule: Q07DX003 (sc), vehicle: saline",188 % of control and 190 % of control
same,T/C,"endpoint: median survival time, dose: 100.0 mg/kg/injection, schedule: Q07DX003 (sc), vehicle: saline",244 % of control
same,T/C,"endpoint: median survival time, dose: 100.0 mg/kg/injection, schedule: Q07DX004 (sc), vehicle: saline",211 % of control and 213 % of control
same,T/C,"endpoint: median survival time, dose: 100.0 mg/kg/injection, schedule: Q16DX002 (sc), vehicle: saline",157 % of control and 161 % of control (2×)
same,T/C,"endpoint: median survival time, dose: 100.0 mg/kg/injection, schedule: Q## X002 (sc), vehicle: saline",155 % of control
same,T/C,"endpoint: median survival time, dose: 108.0 mg/kg/injection, schedule: Q01DX001 (sc), vehicle: other",160 % of control
same,T/C,"endpoint: median survival time, dose: 108.0 mg/kg/injection, schedule: Q01DX014 (sc), vehicle: saline",163 % of control
same,T/C,"endpoint: median survival time, dose: 108.0 mg/kg/injection, schedule: Q01DX Z (ip), vehicle: saline",113 % of control
same,T/C,"endpoint: median survival time, dose: 108.0 mg/kg/injection, schedule: Q01DX Z (oral), vehicle: saline",208 % of control and 240 % of control
same,T/C,"endpoint: median survival time, dose: 108.0 mg/kg/injection, schedule: Q01DX Z (sc), vehicle: other",180 % of control
same,T/C,"endpoint: median survival time, dose: 108.0 mg/kg/injection, schedule: Q07DX Z (sc), vehicle: saline",171 % of control
same,T/C,"endpoint: median survival time, dose: 108.0 mg/kg/injection, schedule: Q08DX003 (ip), vehicle: saline",109 % of control
same,T/C,"endpoint: median survival time, dose: 180.0 mg/kg/injection, schedule: Q01DX001 (sc), vehicle: other",191 % of control
same,T/C,"endpoint: median survival time, dose: 180.0 mg/kg/injection, schedule: Q01DX014 (sc), vehicle: saline",217 % of control
same,T/C,"endpoint: median survival time, dose: 180.0 mg/kg/injection, schedule: Q02DX Z (sc), vehicle: saline",170 % of control
same,T/C,"endpoint: median survival time, dose: 180.0 mg/kg/injection, schedule: Q07DX Z (sc), vehicle: saline",195 % of control and 226 % of control
same,T/C,"endpoint: median survival time, dose: 180.0 mg/kg/injection, schedule: Q08DX003 (ip), vehicle: saline",121 % of control
same,T/C,"endpoint: median survival time, dose: 200.0 mg/kg/injection, schedule: Q01DX001 (ip), vehicle: saline",200 % of control and 205 % of control
same,T/C,"endpoint: median survival time, dose: 200.0 mg/kg/injection, schedule: Q16DX002 (sc), vehicle: saline",183 % of control and 206 % of control (2×)
same,T/C,"endpoint: median survival time, dose: 200.0 mg/kg/injection, schedule: Q## X002 (sc), vehicle: saline",180 % of control
same,T/C,"endpoint: median survival time, dose: 256.0 mg/kg/injection, schedule: Q01DX001 (sc), vehicle: saline",213 % of control and 215 % of control
same,T/C,"endpoint: median survival time, dose: 300.0 mg/kg/injection, schedule: Q01DX001 (ip), vehicle: saline",240 % of control and 242 % of control
same,T/C,"endpoint: median survival time, dose: 300.0 mg/kg/injection, schedule: Q01DX001 (sc), vehicle: other",243 % of control
same,T/C,"endpoint: median survival time, dose: 300.0 mg/kg/injection, schedule: Q01HX002 (ip), vehicle: saline",113 % of control
same,T/C,"endpoint: median survival time, dose: 300.0 mg/kg/injection, schedule: Q07DX Z (sc), vehicle: saline",217 % of control and 219 % of control
same,T/C,"endpoint: median survival time, dose: 300.0 mg/kg/injection, schedule: Q08DX003 (ip), vehicle: saline",113 % of control
same,T/C,"endpoint: median survival time, dose: 300.0 mg/kg/injection, schedule: Q16DX002 (ip), vehicle: saline",115 % of control
same,T/C,"endpoint: median survival time, dose: 320.0 mg/kg/injection, schedule: Q01DX001 (sc), vehicle: saline",235 % of control and 240 % of control
same,T/C,"endpoint: median survival time, dose: 400.0 mg/kg/injection, schedule: Q07DX004 (sc), vehicle: saline",166 % of control
same,T/C,"endpoint: median survival time, dose: 400.0 mg/kg/injection, schedule: Q16DX002 (sc), vehicle: saline",222 % of control and 239 % of control (2×)
same,T/C,"endpoint: median survival time, dose: 400.0 mg/kg/injection, schedule: Q## X002 (sc), vehicle: saline",220 % of control
same,T/C,"endpoint: median survival time, dose: 500.0 mg/kg/injection, schedule: Q01DX001 (sc), vehicle: other",217 % of control
